Where a name gives a salt, the structure may show the parent alone. Read-outs that look alike come from different tables or passages of the source.
Legend:
[1] = tested on: HTT mRNA; assay: RT-qPCR splicing assay, HTT canonical junction (CJ) and alternative junction (AJ) mRNA; format: cell-based, human; settings: Homo sapiens; for AC50: increase in HTT alternative junction (AJ) mRNA, read-out: HTT AJ AC50
How it was run: (§1)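 24 h treatment, 37 °C/5% CO2; A673 or K562; 11-pt 3-fold series, top 10 uM final; DMSO ≤0.25%. Cell lysis with DNase I, then 1-step RT-qPCR. Housekeeping normalization: PPIA (A673), GAPDH or GUSB (K562).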

[2] = tested on: MYB mRNA; assay: RT-qPCR splicing assay, MYB canonical junction (CJ) and alternative junction (AJ) mRNA; format: cell-based, human; settings: Homo sapiens; for AC50: increase in MYB alternative junction (AJ) mRNA, read-out: MYB AJ AC50
How it was run: as §1

[3] = tested on: K562 (human chronic myelogenous leukemia) cells; assay: Cell Titer Glo 2.0 cell viability assay; format: cell-based; settings: Homo sapiens, K562, 72 h, K562 cells, 72 hours, Cell Titer Glo 2.0; read-out: K562 GI50
[4] = tested on: Target C; assay: HiBiT protein abundance assay, Target C (Promega Nano-Glo HiBiT Lytic Detection System, knock-in K562 cell line); format: cell-based, human; settings: Homo sapiens, K562, 24 h, HiBiT K562 cell line, 24 hours, top dose 10 μM; read-out: Effect on protein abundance, Target C (IC50 category)
How it was run: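 Knock-in K562 cells carrying HiBiT-tagged Target C, 10,000 per well, treated 24 h at 37 °C with 10-point threefold dilutions (top 10 μM final, ≤0.25% DMSO). Lytic HiBiT luminescence read; response normalised to unmodified K562 and DMSO controls, four-parameter fit interpolated at 50% for IC50.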

[5] = decrease in HTT canonical junction (CJ) mRNA, RT-qPCR, read-out: HTT CJ IC50
[6] = Table 5 panel, canonical junction qPCR, compound concentration having 50% response in CJ decrease, read-out: HTT IC50 (decrease in CJ mRNA levels)
[7] = Table 5 panel, canonical junction qPCR, compound concentration having 50% response in CJ decrease, read-out: MYB IC50 (decrease in CJ mRNA levels)
[8] = decrease in MYB canonical junction (CJ) mRNA, RT-qPCR, read-out: MYB CJ IC50

| SMILES | IC50 [1, 5] | IC50 [1, 6] | IC50 [2, 7] | IC50 [2, 8] | GI50 [3] | IC50 [4] | AC50 ([1]; RT-qPCR) | AC50 ([2]; RT-qPCR) |
| --- | --- | --- | --- | --- | --- | --- | --- | --- |
| CCOC(=O)c1cc(-c2ccc3c(=O)n(C4CCNCC4)ccc3c2)nn2cc(C)nc12 [Compound 529, ethyl 2-methyl-6-[1-oxo-2-(4-piperidyl)-6-isoquinolyl]imidazo[1,2-b]pyridazine-8-carboxylate] | 1000 to 10000 nM | 100 to 1000 nM | 100 to 1000 nM | 100 to 1000 nM | 1000 to 10000 nM | 100 to 1000 nM | 100 to 1000 nM | 100 to 1000 nM |
| Cn1cc2c(=O)n(-c3ccc4c(=O)n(C5CCNCC5)ccc4c3)ccc2n1 [Compound 530, 6-{2-methyl-4-oxopyrazolo[4,3-c]pyridin-5-yl}-2-(piperidin-4-yl)isoquinolin-1-one] | > 10000 nM | > 10000 nM | > 10000 nM | > 10000 nM | > 10000 nM | > 10000 nM | > 10000 nM | > 10000 nM |
| Cc1cn2nc(-c3ccc4c(=O)n(C5CCNCC5)ccc4c3)cc(CC(=O)O)c2n1 [Compound 531, 2-[2-methyl-6-[1-oxo-2-(4-piperidyl)-6-isoquinolyl]imidazo[1,2-b]pyridazin-8-yl]acetic acid] | 100 to 1000 nM | < 100 nM | 100 to 1000 nM | 100 to 1000 nM | 100 to 1000 nM | 100 to 1000 nM | < 100 nM | 100 to 1000 nM |
| Cc1cn2nc(-c3ccc4c(=O)n(C5CCNCC5)ccc4c3)cc(CCO)c2n1 [Compound 533, 6-[8-(2-hydroxyethyl)-2-methyl-imidazo[1,2-b]pyridazin-6-yl]-2-(4-piperidyl)isoquinolin-1-one] | 100 to 1000 nM | 100 to 1000 nM | 100 to 1000 nM | 100 to 1000 nM | 100 to 1000 nM | 100 to 1000 nM | 100 to 1000 nM | 100 to 1000 nM |
| CNC(=O)Cc1cc(-c2ccc3c(=O)n(C4CCNCC4)ccc3c2)nn2cc(C)nc12 [Compound 534, N-methyl-2-[2-methyl-6-[1-oxo-2-(4-piperidyl)-6-isoquinolyl]imidazo[1,2-b]pyridazin-8-yl]acetamide] | 1000 to 10000 nM | 1000 to 10000 nM | 1000 to 10000 nM | 1000 to 10000 nM | 1000 to 10000 nM | 1000 to 10000 nM | 1000 to 10000 nM | 1000 to 10000 nM |
| Cc1cn2nc(-c3ccc4c(=O)n(C5CCNCC5)ccc4c3)cc(Cc3nnc[nH]3)c2n1 [Compound 535, 6-[2-methyl-8-(4H-1,2,4-triazol-3-ylmethyl)imidazo[1,2-b]pyridazin-6-yl]-2-(4-piperidyl) isoquinolin-1-one] | 1000 to 10000 nM | 1000 to 10000 nM | 1000 to 10000 nM | 1000 to 10000 nM | 1000 to 10000 nM | 1000 to 10000 nM | 1000 to 10000 nM | 1000 to 10000 nM |
| Cc1cn2nc(-c3ccc4c(=O)n(C5CCNCC5)ccc4c3)cc(Cc3nnn[nH]3)c2n1 [Compound 536, 6-[2-methyl-8-(1H-tetrazol-5-ylmethyl)imidazo[1,2-b]pyridazin-6-yl]-2-(4-piperidyl) isoquinolin-1-one] | > 10000 nM | > 10000 nM | > 10000 nM | > 10000 nM | > 10000 nM | > 10000 nM | > 10000 nM | > 10000 nM |
| Cc1cn2nc(-c3cc(F)c4c(=O)n(C5CCN(CCF)CC5)ncc4c3)cc(C)c2n1 [Compound 538] | < 100 nM | < 100 nM | 100 to 1000 nM | 100 to 1000 nM | 100 to 1000 nM | 100 to 1000 nM | < 100 nM | 100 to 1000 nM |
| CCN1CCC(n2ncc3cc(-c4cc(C)c5nc(C)cn5n4)cc(O)c3c2=O)CC1 [Compound 542] | < 100 nM | < 100 nM | < 100 nM | < 100 nM | 100 to 1000 nM | < 100 nM | < 100 nM | < 100 nM |
| Cc1cn2nc(-c3cc(O)c4c(=O)n(C5CCN(C)CC5)ncc4c3)cc(C)c2n1 [Compound 543] | 100 to 1000 nM | < 100 nM | 100 to 1000 nM | 100 to 1000 nM | 100 to 1000 nM | 100 to 1000 nM | < 100 nM | 100 to 1000 nM |

Continued, in another order:

| IC50 [1, 5] | IC50 [1, 6] | IC50 [2, 7] | IC50 [2, 8] | GI50 [3] | IC50 [4] | SMILES | AC50 ([1]; RT-qPCR) | AC50 ([2]; RT-qPCR) |
| --- | --- | --- | --- | --- | --- | --- | --- | --- |
| < 100 nM | < 100 nM | 100 to 1000 nM | 100 to 1000 nM | 100 to 1000 nM | 100 to 1000 nM | CCN1CCC(n2ncc3cc(-c4cc(C)c5nc(C)cn5n4)cc(F)c3c2=O)CC1 [Compound 537] | < 100 nM | 100 to 1000 nM |
| < 100 nM | < 100 nM | < 100 nM | < 100 nM | 100 to 1000 nM | < 100 nM | Cc1cn2nc(-c3cc(F)c4c(=O)n(C5CCN(C)CC5)ncc4c3)cc(C)c2n1 [Compound 539] | < 100 nM | < 100 nM |
| < 100 nM | < 100 nM | < 100 nM | < 100 nM | < 100 nM | < 100 nM | Cc1cn2nc(-c3cc(F)c4c(=O)n(C5CCNCC5)ncc4c3)cc(C)c2n1 [Compound 540] | < 100 nM | < 100 nM |
| < 100 nM | < 100 nM | < 100 nM | < 100 nM | < 100 nM | < 100 nM | Cc1cn2nc(-c3cc(O)c4c(=O)n(C5CCNCC5)ncc4c3)cc(C)c2n1 [Compound 541] | < 100 nM | < 100 nM |
| < 100 nM | < 100 nM | 100 to 1000 nM | < 100 nM | 100 to 1000 nM | < 100 nM | Cc1cn2nc(-c3ccc4c(=O)n(C5CCNCC5)ccc4c3)cc(Oc3ccccc3F)c2n1 [Compound 544, 6-[8-(2-fluorophenoxy)-2-methyl-imidazo[1,2-b]pyridazin-6-yl]-2-(4-piperidyl) isoquinolin-1-one; hydrochloride] | < 100 nM | 100 to 1000 nM |
| < 100 nM | < 100 nM | < 100 nM | < 100 nM | < 100 nM | < 100 nM | Cc1cn2nc(-c3ccc4c(=O)n(C5CCNCC5)ccc4c3)cc(Oc3cccc(F)c3)c2n1 [Compound 545, 6-[8-(3-fluorophenoxy)-2-methyl-imidazo[1,2-b]pyridazin-6-yl]-2-(4-piperidyl)isoquinolin-1-one; hydrochloride] | < 100 nM | < 100 nM |
| < 100 nM | < 100 nM | < 100 nM | < 100 nM | < 100 nM | < 100 nM | Cc1cn2nc(-c3ccc4c(=O)n(C5CCNCC5)ccc4c3)cc(Oc3ccc(F)cc3)c2n1 [Compound 546, 6-[8-(4-fluorophenoxy)-2-methyl-imidazo[1,2-b]pyridazin-6-yl]-2-(4-piperidyl) isoquinolin-1-one; hydrochloride] | < 100 nM | < 100 nM |
| < 100 nM | < 100 nM | < 100 nM | < 100 nM | < 100 nM | < 100 nM | COc1cccc(Oc2cc(-c3ccc4c(=O)n(C5CCNCC5)ccc4c3)nn3cc(C)nc23)c1 [Compound 547, 6-[8-(3-methoxyphenoxy)-2-methyl-imidazo[1,2-b]pyridazin-6-yl]-2-(4 piperidyl) isoquinolin-1-one] | < 100 nM | < 100 nM |
| < 100 nM | < 100 nM | < 100 nM | < 100 nM | < 100 nM | < 100 nM | Cc1cn2nc(-c3cc(F)c4c(=O)n(C5CCNCC5)ncc4c3)cc(Oc3ccccc3)c2n1 [Compound 548, 8-fluoro-6-(2-methyl-8-phenoxy-imidazo[1,2-b]pyridazin-6-yl)-2-(4-piperidyl)phthala-zin-1-one] | < 100 nM | < 100 nM |
| < 100 nM | < 100 nM | < 100 nM | 100 to 1000 nM | 100 to 1000 nM | < 100 nM | Cc1cn2nc(-c3ccc4c(=O)n(C5CCNCC5)ncc4c3)cc(Oc3ccccc3)c2n1 [Compound 549, 6-(2-methyl-8-phenoxy-imidazo[1,2-b]pyridazin-6-yl)-2-(4-piperidyl) phthalazin-1-one] | < 100 nM | < 100 nM |
| < 100 nM | < 100 nM | < 100 nM | < 100 nM | < 100 nM | < 100 nM | Cc1cn2nc(-c3ccc4c(=O)n(C5CCNCC5)ccc4c3)cc(Oc3cccnc3)c2n1 [Compound 550, 6-[2-methyl-8-(3-pyridyloxy)imidazo[1,2-b]pyridazin-6-yl]-2-(4-piperidyl)isoquinolin-1-one] | < 100 nM | < 100 nM |

Reference: patent US20250332173A1, “COMPOUNDS AND METHODS FOR MODULATING NUCLEIC ACID SPLICING” (REMIX THERAPEUTICS INC., priority 2021, published 2025)
